Source: EP1025077B1, “NOVEL ARYLOXY-ALKYL-DIALKYLAMINES” (Wyeth, priority 1997, dated 1999)
Counter-ions that a name gives are not always drawn. Like-named read-outs stand apart in the source and are kept apart here. One block for each molecule: values may come before it.

Key:
[1] = tested on: Immature Sprague-Dawley rats (female, 18 days old); assay: Rat Uterotrophic/Antiuterotrophic Bioassay (uterine wet weight); type: in vivo; conditions: for uterine wet weight, 10uG: 10 uG compound daily ip; for uterine wet weight, 100uG: 100 uG compound daily ip; for uterine wet weight, 1 uG 17_-estradiol: 1 uG daily ip
Ishikawa cells = assay: Ishikawa Cell Alkaline Phosphatase Assay; type: cell-based, human; conditions: for % Activation: compound alone, percent of response related to 1 nM 17_estradiol; for EC50: Homo sapiens, Ishikawa, cells treated for 48 h
TACE = target: T1, TACE (Homo sapiens, UniProt P78536); assay: Procedure for Measuring TACE Inhibition (fluorescent peptidyl substrate); type: biochemical; conditions: read-out: TACE % inhibition at 1 micromolar; 1 micromolar compound
T1 construct: purchased Immunex
T1 sequence (P78536 215-824): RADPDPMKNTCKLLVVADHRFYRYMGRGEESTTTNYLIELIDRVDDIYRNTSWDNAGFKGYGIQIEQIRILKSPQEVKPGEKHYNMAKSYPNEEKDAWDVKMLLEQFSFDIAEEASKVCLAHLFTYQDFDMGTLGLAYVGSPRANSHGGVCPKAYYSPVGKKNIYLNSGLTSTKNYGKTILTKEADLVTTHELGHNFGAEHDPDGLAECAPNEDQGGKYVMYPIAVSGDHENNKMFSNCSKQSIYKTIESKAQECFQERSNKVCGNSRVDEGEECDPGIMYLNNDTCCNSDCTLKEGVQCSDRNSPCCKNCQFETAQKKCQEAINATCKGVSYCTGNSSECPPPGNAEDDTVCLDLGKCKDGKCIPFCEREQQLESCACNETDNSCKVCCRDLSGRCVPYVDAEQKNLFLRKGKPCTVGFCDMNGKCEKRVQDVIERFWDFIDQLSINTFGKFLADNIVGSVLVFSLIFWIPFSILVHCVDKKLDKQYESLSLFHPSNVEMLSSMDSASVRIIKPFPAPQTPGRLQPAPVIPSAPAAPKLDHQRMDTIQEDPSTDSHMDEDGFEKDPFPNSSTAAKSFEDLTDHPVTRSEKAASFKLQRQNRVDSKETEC

Compound: CC/C(=C(\c1ccccc1)c1ccc(OCCN(C)C)cc1)c1ccccc1 [Tamoxifen]
uterine wet weight, 10uG ([1]; control = 42.7 mg): 69.6 mg
uterine wet weight, 100uG ([1]; control = 42.7 mg): 71.4 mg

Compound: O=C(c1ccc(OCCN2CCCCC2)cc1)c1c(-c2ccc(O)cc2)sc2cc(O)ccc12 [Raloxifene, [2-(4-hydroxyphenyl)-6-hydroxybenzo[b]thien-3-yl][4-(1-piperidinyl0ethoxy]phenyl-methanone hydrochloride]
uterine wet weight, 10uG ([1]; control = 42.7 mg): 47.5 mg
uterine wet weight, 100uG ([1]; control = 42.7 mg): 43.2 mg
% Activation (Ishikawa cells; 48 h): 5% activity (5% with 1 nM 17_-estradiol)

Compound: C[C@]12CC[C@@H]3c4ccc(O)cc4CC[C@H]3[C@@H]1CC[C@@H]2O [17_-estradiol]
uterine wet weight, 1 uG 17_-estradiol ([1]; control = 30.7 mg): 1 uG 17_-estradiol = 63.2 mg
uterine wet weight, 1 uG 17_-estradiol ([1]; control = 42.7 mg): 1 uG 17_-estradiol = 98.2 mg

inhibition at 1 µM (TACE): 41%
Compound: COc1ccc(S(=O)(=O)C(C)(Cc2ccc(OCCN3CCCCC3)cc2)C(=O)NO)cc1 (centres unmarked) [Example 26]

Compound: Cc1c(-c2ccc(O)cc2)n(Cc2ccc(OCCN3CCCCC3)cc2)c2ccc(O)cc12 [Example 15, 2-(4-Hydroxy-phenyl)-3-methyl-1-[4-(2-piperidin-1-yl-ethoxy)-benzyl]-1H-indol-5-ol]
uterine wet weight, 10uG ([1]; control = 30.7 mg): 39.9 mg
uterine wet weight, 100uG + 1uG 17 -estradiol ([1]; 100 uG compound + 1 uG 17_ estradiol daily ip (antiestrogenicity), control = 30.7 mg): 24.3 mg
uterine wet weight, 100uG ([1]; control = 30.7 mg): 27.4 mg
% Activation (Ishikawa cells; 48 h): 1% activity (1% with 1 nM 17_-estradiol)

EC50 (Ishikawa cells; 48 h, read-out: ED50 values (95% C.I.), estrogenic activity by the alkaline phosphatase method, reference standards): 0.36 nM
Compound: C[C@]12CC[C@@H]3c4ccc(O)cc4CC[C@H]3[C@@H]1CCC2=O [estrone]

EC50 (Ishikawa cells; read-out: ED50 values (95% C.I.), estrogenic activity by the alkaline phosphatase method, reference standards): 0.13 nM
Compound: C[C@]12CC[C@@H]3c4ccc(O)cc4CC[C@H]3[C@@H]1C[C@@H](O)[C@@H]2O [estriol]
